Assay results from US20250163006A1, “New Coolants, and Preparations Containing Same” (Symrise AG, priority 2022, published 2025).
pEC50: −log10 of the molar value.

These compounds were tested against T1, human TRPM8 receptor (Homo sapiens, UniProt Q7Z2W7) (assay: Assay on TRPM8 modulators: Ca2+-sensitive dye (Fluo-4) fluorescence in HEK293-TRPM8 test cells). Conditions: HEK293 cells recombinantly expressing human TRPM8.
T1 construct: expressed in transfected cells; host or cells: HEK293, stably transfected, tetracycline-inducible expression
T1 sequence (Q7Z2W7 whole entry): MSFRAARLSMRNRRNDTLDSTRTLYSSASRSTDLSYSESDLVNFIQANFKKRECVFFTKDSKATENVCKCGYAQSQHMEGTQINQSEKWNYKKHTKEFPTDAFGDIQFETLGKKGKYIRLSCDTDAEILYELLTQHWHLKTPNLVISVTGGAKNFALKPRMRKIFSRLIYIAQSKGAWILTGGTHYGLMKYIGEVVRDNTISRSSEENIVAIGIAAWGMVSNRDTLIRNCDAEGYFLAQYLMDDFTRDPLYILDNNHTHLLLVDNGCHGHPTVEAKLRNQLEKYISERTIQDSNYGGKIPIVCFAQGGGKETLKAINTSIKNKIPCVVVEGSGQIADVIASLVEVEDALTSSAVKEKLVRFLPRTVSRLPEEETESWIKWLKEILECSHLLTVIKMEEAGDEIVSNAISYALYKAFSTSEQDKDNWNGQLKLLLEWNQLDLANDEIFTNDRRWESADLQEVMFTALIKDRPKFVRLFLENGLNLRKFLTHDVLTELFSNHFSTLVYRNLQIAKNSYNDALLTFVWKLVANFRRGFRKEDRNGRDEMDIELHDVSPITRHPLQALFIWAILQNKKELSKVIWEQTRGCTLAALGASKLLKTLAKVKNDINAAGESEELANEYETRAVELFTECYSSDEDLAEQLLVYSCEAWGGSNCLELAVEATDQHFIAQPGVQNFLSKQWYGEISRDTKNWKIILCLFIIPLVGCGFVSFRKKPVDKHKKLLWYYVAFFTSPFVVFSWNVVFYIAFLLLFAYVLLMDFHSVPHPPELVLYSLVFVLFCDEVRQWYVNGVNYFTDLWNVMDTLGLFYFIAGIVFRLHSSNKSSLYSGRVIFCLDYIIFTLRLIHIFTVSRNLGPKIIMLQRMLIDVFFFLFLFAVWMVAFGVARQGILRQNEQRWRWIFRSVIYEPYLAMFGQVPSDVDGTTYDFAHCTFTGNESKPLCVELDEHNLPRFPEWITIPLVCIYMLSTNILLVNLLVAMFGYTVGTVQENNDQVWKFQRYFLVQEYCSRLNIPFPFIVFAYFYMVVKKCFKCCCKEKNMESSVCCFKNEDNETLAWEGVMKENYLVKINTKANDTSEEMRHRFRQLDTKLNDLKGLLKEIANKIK
Format: cell-based
Parameters: relative TRPM8 activation: concentration or dose not given beside the values
Text: The starting point for cloning the human TRPM8 receptor is an LnCaP cDNA bank. This is commercially available (e.g. BioChain, Hayward, USA) or can be produced from the andro gene-sensitive human prostate adenocarcinoma cell line LnCaP (e.g. ATCC, CRL1740 or ECACC, 891 1021 1) using standard kits.
The coding TRPM8 sequence (see e.g. http://www. ncbi.nlm.nih.gov/entrez/viewer.fcgi?db=nuccore&id=109689694) can be PCR-amplified and cloned using standard methods. The human TRPM8 gene isolated in this way was used to produce the plasmid plnd_M8. Alternatively, the TRPM8 gene can also be produced synthetically.
A stably transfected HEK293 cell line was produced as a test cell system using human TRPM8 DNA. Preference was given to HEK293, which offers the possibility of inducing TRPM8 expression using tetracycline via the plasmid introduced.
A test similar to the test already described in the literature by Behrendt H. J. et al, Br. J. Pharmacol. 141, 2004, 737-745, is performed. The agonization or antagonization of the receptor can be quantified using a Ca^2+-sensitive dye (e.g. FURA, Fluo-4 etc.). Agonists alone cause an increase in the Ca^2+ signal; antagonists cause a reduction in the Ca^2+ signal in the presence of e.g. menthol (detected in each case using the Fluo-4 dye, which has different fluorescence properties due to Ca^2+ ions).
First, a fresh culture of transformed HEK cells is prepared in cell culture flasks in the usual way. The HEK293-TRPM8 test cells are detached from the cell culture flasks using trypsin and 40,000 cells/well are seeded with 100 μl medium in 96-well plates (Greiner #655948 poly-D-lysine-coated). To induce the TRPM8 receptor, tetracycline is added to the growth medium (DMEM/HG, 10% FCS tetracycline-free, 4 mM L-glutamine, 15 μg/ml blasticidin, 100 μg/ml hygromycin B, 1 μg/ml tetracycline).
On the following day, the cells are loaded with Fluo-4AM dye and the test is performed. Proceed as follows: Addition of 100 μl/well staining solution Ca-4 kit (RB 141, Molecular Devices) to each 100 μl medium (DMEM/HG, 10% FCS tetracycline-free, 4 mM L-glutamine, 15 μg/ml blasticidin, 100 μg/ml hygromycin B, 1 μg/ml tetracycline).
Incubation in incubator, 30 minutes/37° C./5% CO2, 30 minutes/RT.
Preparation of the test substances (different concentrations in 200 μl HBSS buffer), as well as positive controls (different concentrations of menthol, icilin or lonomycin in 200 μl HBSS buffer) and negative controls (only 200 μl HBSS buffer) Addition of the test substances in quantities of 50 μl/well and measurement of the fluorescence change (e.g. in the assay device FLIPR, Molecular Devices or NovoStar, BMG) at 485 nm excitation, 520 nm emission, and evaluation of the potency of the different substances/concentrations and determination of the ECG. e.g. in the FLIPR assay device, Molecular Devices or NovoStar, BMG) at 485 nm excitation, 520 nm emission, and evaluation of the potency of the various substances/concentrations and determination of the EC50 values.
The test substances are used in triplicates in concentrations of 0.1-200 μM in the assay. Normally, the compounds are kept ready in DMSO solutions and diluted down to a maximum DMSO concentration of 2% for the assay.
The activity of the active substances in relation to activation of the TRPM8 channel is determined using the assay described. This is done in a concentration-dependent manner. For each active substance, 6 to 10 concentrations are measured as standard. A mathematical method (4-parameter or 5-parameter logistic curve fitting) can be used to determine the EC50 value as the inflection point of the sigmoidal curve from the activity values determined. These are standard biochemical methods that are familiar to experts.

SMILES | relative TRPM8 activation [%]
CCCCNC(=O)CSc1nc(-c2ccccc2)c(-c2ccccc2)o1 [Compound A-70, N-butyl-2-(4,5-diphenyloxazol-2-yl)sulfanyl-acetamide] | −2
CC(C)CNC(=O)C(C)Sc1nc(-c2ccccc2)c(-c2ccccc2)o1 (stereo not shown) [Compound A-37, 2-(4,5-diphenyloxazol-2-yl)sulfanyl-N-isobutyl-propanamide] | 7
COCC(C)NC(=O)CSc1nc(-c2ccccc2)c(-c2ccccc2)o1 (stereo not shown) [Compound A-67, 2-(4,5-diphenyloxazol-2-yl)sulfanyl-N-(2-methoxy-1-methyl-ethyl)acetamide] | −2
c1ccc(CSc2nc(-c3ccccc3)c(-c3ccccc3)o2)cc1 [Compound A-54, 2-benzylsulfanyl-4,5-diphenyl-oxazole] | 1
CNC(=O)C(C)S(=O)(=O)c1nc(-c2ccccc2)c(-c2ccccc2)o1 (stereo not shown) [Compound A-28, 2-(4,5-diphenyloxazol-2-yl)sulfonyl-N-methyl-propanamide] | 40
CC(C)NC(=O)CSc1nc(-c2ccccc2)c(-c2ccccc2)o1 [Compound A-19, 2-(4,5-diphenyloxazol-2-yl)sulfanyl-N-isopropyl-acetamide] | 75
COCCNC(=O)CSc1nc(-c2ccccc2)c(-c2ccccc2)o1 [Compound A-53, 2-(4,5-diphenyloxazol-2-yl)sulfanyl-N-(2-methoxyethyl) acetamide] | 1
CC(C)CNC(=O)CSc1nc(-c2ccccc2)c(-c2ccccc2)o1 [Compound A-65, 2-(4,5-diphenyloxazol-2-yl)sulfanyl-N-isobutyl-acetamide] | −1
CNC(=O)C(C)Sc1ncco1 (stereo not shown) [Compound A-50, N-methyl-2-oxazol-2-ylsulfanyl-propanamide] | 1
CC(Sc1nc(-c2ccccc2)c(-c2ccccc2)o1)C(=O)NC(C)(C)C (stereo not shown) [Compound A-33, N-tert-butyl-2-(4,5-diphenyloxazol-2-yl) sulfanyl-propanamide] | 21
O=C(CSc1nc(-c2ccccc2)c(-c2ccccc2)o1)NC1CCC1 [Compound A-43, N-cyclobutyl-2-(4,5-diphenyloxazol-2-yl)sulfanyl-acetamide] | 3
CC(C)C(=O)CSc1nc(-c2ccccc2)c(-c2ccccc2)o1 [Compound A-51, 1-(4,5-diphenyloxazol-2-yl)sulfanyl-3-methyl-butan-2-one] | 1
CCN(CC)C(=O)CSc1nc(-c2ccccc2)c(-c2ccccc2)o1 [Compound A-29, 2-(4,5-diphenyloxazol-2-yl)sulfanyl-N,N-diethyl-acetamide] | 36
CC(CO)NC(=O)CSc1nc(-c2ccccc2)c(-c2ccccc2)o1 (stereo not shown) [Compound A-26, 2-(4,5-diphenyloxazol-2-yl)sulfanyl-N-(2-hydroxy-1-methyl-ethyl)acetamide] | 51
CNC(=O)C(C)Sc1nc(-c2ccc(C)cc2)c(-c2ccc(C)cc2)o1 (stereo not shown) [Compound A-25, 2-[4,5-bis (p-tolyl)oxazol-2-yl]sulfanyl-N-methyl-propanamide] | 55
CC1CCCCC1NC(=O)CSc1nc(-c2ccccc2)c(-c2ccccc2)o1 (stereo not shown) [Compound A-42, 2-(4,5-diphenyloxazol-2-yl)sulfanyl-N-(2-methylcyclohexyl) acetamide] | 4

Next, values leading:

relative TRPM8 activation [%] | SMILES
25 | CNC(=O)C(C)Sc1nncc(-c2ccccc2)n1 (stereo not shown) [Compound B-34, N-methyl-2-[(5-phenyl-1,2,4-triazin-3-yl)sulfanyl]propanamide]
5 | OCCSc1nnc(-c2ccccc2)c(-c2ccccc2)n1 [Compound B-46, 2-[(5,6-diphenyl-1,2,4-triazin-3-yl)sulfanyl]ethanol]
8 | COC(=O)Nc1nnc(-c2ccccc2)c(-c2ccccc2)n1 [Compound B-41, methyl N-(5,6-diphenyl-1,2,4-triazin-3-yl)carbamate]
2 | O=C(COc1nnc(-c2ccccc2)c(-c2ccccc2)n1)NC1CC1 [Compound B-53, N-cyclopropyl-2-[(5,6-diphenyl-1,2,4-triazin-3-yl)oxy]acetamide]
68 | O=C(CSc1cnc(-c2ccccc2)c(-c2ccccc2)n1)NC1CC1 [Compound B-24, N-cyclopropyl-2-(5,6-diphenylpyrazin-2-yl)sulfanyl-acetamide]
57 | CC(C)C(=O)CSc1nnc(-c2ccccc2)c(-c2ccccc2)n1 [Compound B-25, 1-[(5,6-diphenyl-1,2,4-triazin-3-yl)sulfanyl]-3-methyl-butan-2-one]
3 | c1ccc(-c2nnc(NCCC3CC3)nc2-c2ccccc2)cc1 [Compound B-50, N-(2-cyclopropylethyl)-5,6-diphenyl-1,2,4-triazin-3-amine]
87 | CC(Sc1nnc(-c2ccccc2)c(-c2ccccc2)n1)C(=O)NC1CCCC1 (stereo not shown) [Compound B-22, N-cyclopentyl-2-[(5,6-diphenyl-1,2,4-triazin-3-yl)sulfanyl]propanamide]
9 | CNC(=O)C(C)Sc1nnc(-c2ccc(OC)cc2)c(-c2ccc(OC)cc2)n1 (stereo not shown) [Compound B-40, 2-[[5,6-bis(4-methoxyphenyl)-1,2,4-triazin-3-yl]sulfanyl]-N-methyl-propanamide]
6 | CNC(=O)CNc1nnc(-c2ccccc2)c(-c2ccccc2)n1 [Compound B-43, 2-[(5,6-diphenyl-1,2,4-triazin-3-yl)amino]-N-methyl-acetamide]
4 | CC(Sc1nnc(-c2ccccc2)c(-c2ccccc2)n1)C(=O)NCc1cccs1 (stereo not shown) [Compound B-48, 2-[(5,6-diphenyl-1,2,4-triazin-3-yl)sulfanyl]-N-(2-thienylmethyl) propanamide]
1 | CCC(Sc1nnc(-c2ccc(OC)c(OC)c2)c(-c2ccc(OC)c(OC)c2)n1)C(=O)NC1CCCC1 (stereo not shown) [Compound B-61, 2-[[5,6-bis(3,4-dimethoxyphenyl)-1,2,4-triazin-3-yl]sulfanyl]-N-cyclopentyl-butanamide]
3 | c1ccc(-c2nnc(NC3COC3)nc2-c2ccccc2)cc1 [Compound B-51, N-(oxetan-3-yl)-5,6-diphenyl-1,2,4-triazin-3-amine]

Same assay, conditions: TRPM8 activation, HEK293-TRPM8 cells, 6 to 10 concentrations, logistic curve fitting; read-out: EC50 value

pEC50 | SMILES
≥ 6.00 | O=C(CSc1nc(-c2ccccc2)c(-c2ccccc2)o1)NC1CC1 [Compound A-06, N-cyclopropyl-2-(4,5-diphenyloxazol-2-yl)sulfanyl-acetamide]
≥ 6.00 | CCC(Sc1nnc(-c2ccccc2)c(-c2ccccc2)n1)C(=O)NC (stereo not shown) [Compound B-03, 2-[(5,6-diphenyl-1,2,4-triazin-3-yl)sulfanyl]-N-methyl-butanamide]

Same assay, conditions: Table 5; HEK293-TRPM8 cells; read-out: TRPM8 EC50

pEC50 | SMILES
7.15 | CCC(Sc1nnc(-c2ccccc2)c(-c2ccccc2)n1)C(=O)NC (stereo not shown) [Compound B-03, 2-[(5,6-diphenyl-1,2,4-triazin-3-yl)sulfanyl]-N-methyl-butanamide]

Same assay, conditions: Table 6; HEK293-TRPM8 cells; read-out: TRPM8 EC50

pEC50 | SMILES
6.47 | O=C(CSc1nc(-c2ccccc2)c(-c2ccccc2)o1)NC1CC1 [Compound A-06, N-cyclopropyl-2-(4,5-diphenyloxazol-2-yl)sulfanyl-acetamide]
8.00 | CNC(=O)C(C)Sc1nc(-c2ccccc2)c(-c2ccccc2)o1 (stereo not shown) [Compound A-01, 3-carboxy-3,5-dihydroxy-5-OXO-pentanoate;2-(4,5-diphenyloxazol-2-yl)sulfanylpropa noyl-methyl-ammonium]

Same assay, conditions: Table 7; HEK293-TRPM8 cells; read-out: TRPM8 EC50

pEC50 | SMILES
7.15 | CCC(Sc1nnc(-c2ccccc2)c(-c2ccccc2)n1)C(=O)NC (stereo not shown) [Compound B-03, 2-[(5,6-diphenyl-1,2,4-triazin-3-yl)sulfanyl]-N-methyl-butanamide]

Same assay, conditions: Table 8; HEK293-TRPM8 cells; read-out: TRPM8 EC50

pEC50 | SMILES
6.47 | O=C(CSc1nc(-c2ccccc2)c(-c2ccccc2)o1)NC1CC1 [Compound A-06, N-cyclopropyl-2-(4,5-diphenyloxazol-2-yl)sulfanyl-acetamide]
8.00 | CNC(=O)C(C)Sc1nc(-c2ccccc2)c(-c2ccccc2)o1 (stereo not shown) [Compound A-01, 3-carboxy-3,5-dihydroxy-5-OXO-pentanoate;2-(4,5-diphenyloxazol-2-yl)sulfanylpropa noyl-methyl-ammonium]
